The source of these data is US11857601B2, “Pharmaceutical composition for cancer treatment comprising fusion protein including IL-2 protein and CD80 protein and anticancer drug” (GI INNOVATION, INC., priority 2020, dated 2024).

In the assay the test system is MC38 cells. The assay can be described thus: mGI-101 and DMXAA in MC38 allotransplanted tumor model. The format is in vivo, C57BL/6 mice. To be noted: day 60 after tumor injection; mGI-101 6 mg/kg i.p. BIW, DMXAA 450 μg I.T.; 5 mice per group. On the procedure:
In order to establish an allotransplanted tumor model, 5×10^5 of MC38 cells were subcutaneously injected into C57BL/6 mice. The tumor grafts of the mice were identified to be a size of 100-200 mm^3 about day 10 after cell inoculation, and the mice were assigned, each group including 5 mice.
The size of the MC38 solid cancer was measured three times a week during the observation period, and the major axis (maximum length, L) and minor axis (perpendicular width, W) of the tumor were measured using a caliper, and the tumor volume (TV) was calculated by substituting them into the following equation, and once the tumor size was no less than 2 cm, the mice were sacrificed. TV (mm^3)=(W^2×L)/2 [Equation 1]

As for `Cc1ccc2c(=O)c3cccc(CC(=O)O)c3oc2c1C` [DMXAA, reference compound], the survival rate worked out at 60%.
